Assay results: patent US20210171948A1, “COMPOSITIONS AND METHODS FOR TARGETING GLYPICAN-2 IN THE TREATMENT OF CANCER” (Shepherd Therapeutics, Inc., priority 2019, published 2021)
Strand notation (5' to 3'): a small letter for the sugar, then the base; units joined by * are phosphorothioate-linked, units joined directly phosphodiester-linked; [ ] holds rarer units or linkages, { } end groups; capitals alone tell only the bases. d = 2'-deoxy (DNA); r = 2'-OH (RNA)

Assays:
Assay type in all cases: cell-based
[1] = tested on: SKNAS cells; experiment: Cyclophosphamide IC50 in siRNA-transfected cells, Cell Titer Glo 2.0 viability (Example 7)
Experimental: (§1) GPC2 mRNA expression was reduced with the indicated siRNAs and changes in cell viability were assessed in multiple neuroblastoma cell lines. Cells were transfected with either a control siRNA or with GPC2 siRNA sequences 3, 5 or 7 from Table 7 using the RNAiMAX Lipofectamine kit (Invitrogen, Carlsbad, Calif.) as previously described in 96 wells for viability assays. Cyclophosphamide was added at increasing concentrations (0-20 uM) to transfected cells at 24 hr post transfection. Following a 72 hour incubation period, viability measurements were made using Cell Titer Glo 2.0.

[2] = tested on: CHLA-172 cells; experiment: as above
Experimental: as §1

[3] = tested on: KELLY cells; experiment: as above
Experimental: as §1

[4] = tested on: CHLA-136 cells; experiment: as above
Experimental: as §1

[5] = tested on: SKNAS cells; experiment: Cell viability after siRNA transfection, Cell Titer Glo 2.0 (Example 3)
Experimental: (§2) GPC2 mRNA knockdown and changes in cell viability were assessed in multiple cancer cell lines. Cells were transfected with either a scrambled control siRNA or with GPC2 siRNA sequence 3 or sequence 5 from Table 7 using the RNAiMAX Lipofectamine kit (Invitrogen, Carlsbad, Calif.) as previously described in Example 2, either in 96 well format (for viability assays) or 6 well format (for knockdown assessment). Following a 96 hour incubation period, cells were washed and the viability measurement was assessed using Cell Titer Glo 2.0. Total RNA was isolated from the 6 well plate samples to determine knockdown efficiency.

[6] = tested on: IMR32 cells; experiment: as above
Experimental: as §2

[7] = tested on: SNU16 cells; experiment: as above
Experimental: as §2

[8] = tested on: MCF7 cells; experiment: as above
Experimental: as §2

[9] = tested on: RH41 cells; experiment: as above
Experimental: as §2

[10] = tested on: TC71 cells; experiment: as above
Experimental: as §2

[11] = tested on: RH30 cells; experiment: as above
Experimental: as §2

[12] = tested on: COV362 cells; experiment: as above; settings: COV362 (Ovarian Carcinoma); 96 hour incubation
Experimental: as §2

[13] = tested on: TC32 cells; experiment: as above
Experimental: as §2

[14] = tested on: GIST-T1 cells; experiment: as above
Experimental: as §2

[15] = tested on: CHP212 cells; experiment: as above
Experimental: as §2

[16] = tested on: TOV112D cells; experiment: as above
Experimental: as §2

[17] = tested on: SH-SY5Y cells; experiment: Cisplatin IC50 in siRNA-transfected cells, Cell Titer Glo 2.0 viability (Example 5); settings: SH-SY5Y cells transfected with the labelled siRNA; cisplatin added 24 hours post transfection, 72 hour incubation
Experimental: (§3) GPC2 mRNA was reduced using the indicated siRNAs and changes in cell viability were assessed in multiple cancer cell lines, in combination with Cisplatin treatment. Cells were transfected with either a scrambled control siRNA or with GPC2 siRNA sequences 3 or 5 from Table 7 using the RNAiMAX Lipofectamine kit (Invitrogen, Carlsbad, Calif.), as previously described, in either in 96 well (for viability assays) or 6 well format (for total RNA). Cisplatin was added at increasing concentrations (0 to 30 uM) to transfected cells at 24 hours post transfection. Following a 72 hour incubation period, cell viability was measured using Cell Titer Glo 2.0. Total RNA samples were also isolated to measure knockdown efficiency.

[18] = tested on: SNU16 cells; experiment: as above
Experimental: as §3

[19] = tested on: TC71 cells; experiment: as above
Experimental: as §3

[20] = tested on: GIST-T1 cells; experiment: as above; settings: GIST-T1 cells transfected with the labelled siRNA; cisplatin added 24 hours post transfection, 72 hour incubation
Experimental: as §3

[21] = tested on: CHP212 cells; experiment: as above
Experimental: as §3

[22] = tested on: TOV112D cells; experiment: as above
Experimental: as §3

[23] = tested on: CHLA-90 cells; experiment: as above
Experimental: as §3

[24] = tested on: SKNAS cells; experiment: Topotecan IC50 in siRNA-transfected cells, Cell Titer Glo 2.0 viability (Example 10)
Experimental: as §1, with “reduced” for “reduced with the indicated siRNAs”, “sequences” for “sequences 3,”, “Topotecan” for “Cyclophosphamide”, “(0-5” for “(0-20”, “hours” for “hr”

[25] = tested on: SH-SY5Y cells; experiment: as above
Experimental: as §1, with “reduced” for “reduced with the indicated siRNAs”, “sequences” for “sequences 3,”, “Topotecan” for “Cyclophosphamide”, “(0-5” for “(0-20”, “hours” for “hr”

[26] = tested on: KELLY cells; experiment: as above
Experimental: as §1, with “reduced” for “reduced with the indicated siRNAs”, “sequences” for “sequences 3,”, “Topotecan” for “Cyclophosphamide”, “(0-5” for “(0-20”, “hours” for “hr”

[27] = tested on: SK-N-BE2 cells; experiment: as above
Experimental: as §1, with “reduced” for “reduced with the indicated siRNAs”, “sequences” for “sequences 3,”, “Topotecan” for “Cyclophosphamide”, “(0-5” for “(0-20”, “hours” for “hr”

[28] = tested on: CHP212 cells; experiment: as above
Experimental: as §1, with “reduced” for “reduced with the indicated siRNAs”, “sequences” for “sequences 3,”, “Topotecan” for “Cyclophosphamide”, “(0-5” for “(0-20”, “hours” for “hr”

[29] = tested on: CHLA-90 cells; experiment: as above
Experimental: as §1, with “reduced” for “reduced with the indicated siRNAs”, “sequences” for “sequences 3,”, “Topotecan” for “Cyclophosphamide”, “(0-5” for “(0-20”, “hours” for “hr”

## GPC2 siRNA 3: siRNA duplex: sense CCUGCUUGGACCUCGAUAA[dT][dT] (SEQ ID NO: 207), anti-sense UUAUCGAGGUCCAAGCAGG[dT][dT] (SEQ ID NO: 208) (sense CCUGCUUGGACCUCGAUAANN; antisense UUAUCGAGGUCCAAGCAGGNN; 3' dTdT overhangs, chemistry not fully specified; listed as Homo sapiens)
[1]; SKNAS
  Data Summary: effect of knockdown on sensitivity to cyclophosphamide: increases sensitivity to
[1]; SKNAS cells transfected with the labelled siRNA, cyclophosphamide added 24 hr post transfection, 72 hour incubation
  IC50: 1370 nM
[2]; CHLA-172
  Data Summary: effect of knockdown on sensitivity to cyclophosphamide: increases sensitivity to
[2]; CHLA-172 cells transfected with the labelled siRNA, cyclophosphamide added 24 hr post transfection, 72 hour incubation
  IC50: 10 µM
[3]; KELLY
  Data Summary: effect of knockdown on sensitivity to cyclophosphamide: increases sensitivity to
[3]; KELLY cells transfected with the labelled siRNA, cyclophosphamide added 24 hr post transfection, 72 hour incubation
  IC50: 8 µM
[4]; CHLA-136
  Data Summary: effect of knockdown on sensitivity to cyclophosphamide: not increase sensitivity
[4]; CHLA-136 cells transfected with the labelled siRNA, cyclophosphamide added 24 hr post transfection, 72 hour incubation
  IC50: 11 µM
[5]
  % Viability: 84.58%
[6]
  % Viability: 89.05%
[7]
  % Viability: 92.74%
[8]
  % Viability: 79.67%
[9]
  % Viability: 131.49%
[10]
  % Viability: 102.39%
[11]
  % Viability: 79.02%
[12]
  % Viability: 102.76%
[13]
  % Viability: 78.24%
[14]
  % Viability: 70.87%
[15]
  % Viability: 70.18%
[16]
  % Viability: 152.77%
[17]
  IC50: 17.6 µM
[18]; SNU16
  Data Summary: effect of knockdown on sensitivity to cisplatin: does not increase
[18]; SNU16 cells transfected with the labelled siRNA, cisplatin added 24 hours post transfection, 72 hour incubation
  IC50: 16 µM
[19]; TC71
  Data Summary: effect of knockdown on sensitivity to cisplatin: does not increase
[19]; TC71 cells transfected with the labelled siRNA, cisplatin added 24 hours post transfection, 72 hour incubation
  IC50: 1300 nM
[20]
  IC50: 13 µM
[21]; CHP212
  Data Summary: effect of knockdown on sensitivity to cisplatin: increases sensitivity to
[21]; CHP212 cells transfected with the labelled siRNA, cisplatin added 24 hours post transfection, 72 hour incubation
  IC50: 7.4 µM
[22]; TOV112D
  Data Summary: effect of knockdown on sensitivity to cisplatin: does not increase
[22]; TOV112D cells transfected with the labelled siRNA, cisplatin added 24 hours post transfection, 72 hour incubation
  IC50: 5 µM
[23]; CHLA-90
  Data Summary: effect of knockdown on sensitivity to cisplatin: increases sensitivity to
[23]; CHLA-90 cells transfected with the labelled siRNA, cisplatin added 24 hours post transfection, 72 hour incubation
  IC50: 15 µM

## GPC2 siRNA 7: siRNA duplex: sense CUCCUUUCUGGUUCACACA[dT][dT] (SEQ ID NO: 215), anti-sense UGUGUGAACCAGAAAGGAG[dT][dT] (SEQ ID NO: 216) (sense rCrUrCrCrUrUrUrCrUrGrGrUrUrCrArCrArCrAdTdT; antisense rUrGrUrGrUrGrArArCrCrArGrArArArGrGrArGdTdT; listed as Homo sapiens)
[24]; SKNAS
  Data Summary: effect of knockdown on sensitivity to topotecan: increases sensitivity to topotecan
[24]; SKNAS cells transfected with the labelled siRNA, topotecan added 24 hours post transfection, 72 hour incubation
  IC50: 20 nM
[25]; SH-SY5Y
  Data Summary: effect of knockdown on sensitivity to topotecan: not increase sensitivity to topotecan
[25]; SH-SY5Y cells transfected with the labelled siRNA, topotecan added 24 hours post transfection, 72 hour incubation
  IC50: 40 nM
[26]; KELLY
  Data Summary: effect of knockdown on sensitivity to topotecan: not increase sensitivity to topotecan
[26]; KELLY cells transfected with the labelled siRNA, topotecan added 24 hours post transfection, 72 hour incubation
  IC50: 20 nM
[27]; SK-N-BE2
  Data Summary: effect of knockdown on sensitivity to topotecan: not increase sensitivity to topotecan
[27]; SK-N-BE2 cells transfected with the labelled siRNA, topotecan added 24 hours post transfection, 72 hour incubation
  IC50: 10 nM
[28]; CHP212
  Data Summary: effect of knockdown on sensitivity to topotecan: not increase sensitivity to topotecan
[28]; CHP212 cells transfected with the labelled siRNA, topotecan added 24 hours post transfection, 72 hour incubation
  IC50: 10 nM
[29]; CHLA-90
  Data Summary: effect of knockdown on sensitivity to topotecan: not increase sensitivity to topotecan
[29]; CHLA-90 cells transfected with the labelled siRNA, topotecan added 24 hours post transfection, 72 hour incubation
  IC50: 140 nM
